How the values were obtained:
[1] = test system: larvae of case making clothes moths; assay: killing of case making clothes moth larvae in plugged bottle at 25° C. for 4 hours (Tables 3 and 4); format: in vivo; details: 10 larvae, chemicals in the solid state, 2 g, 4 hours (Table 4)
Procedure: Granular trioxane containing 1 ppm of formic acid and 2 ppm of formaldehyde was dissolved in various organic solvents at a predetermined concentration to prepare organic liquid insect-proofing agents.
Square absorbent cotton piece having a side of 3 cm, which was impregnated with 2 g of the organic liquid insect-proofing agent, was placed in the bottom portion of a glass bottle having a volume of 500 ml, and an insect cage of a metal net having a diameter of 3 cm, which contained 10 larvae of case making clothes moths having a body length of about 6 mm and a square wool fabric having a side of 3 cm, was secured the absorbent cotton 5 cm apart therefrom. Then, the bottle was plugged and allowed to stand in a thermostat chamber maintained at 25° C. for 4 hours. Then, the cage was taken up and the state of the larvae of case making clothes was checked.
Each of p-dichlorobenzene, naphthalene and dl-camphor was used in the form of a granular reagent. […] One pack of "Mothproofing Agent for Drawers" supplied by Dainippon Jochugiku (corresponding to 12.5 liters) was used as the pyrethroid type chemicals. No chemical was used in Comparative Example 13.

[2] = cited from earlier work
[3] = test system: larvae of case making clothes moths; assay: test for controlling harmful insects to clothes, case making clothes moth larvae (Table 1); format: in vivo; parameters: key to Eating damage degree after 24 hours: A: no eating damage; B: eating damage was only a trace; C: intermediate between ranks B and D; D: large eating damage (damage in absence of insect-proofing agent); details: for Number of dead insects after 6 hours / Number of dead insects after 24 hours: 10 case making clothes moth larvae, 500 ml bottle, 24° to 26° C.; for Eating damage degree after 24 hours: wool fabric, case making clothes moth larvae
Procedure: (§1) The solid insect-proofing agent was subjected to the test for controlling harmful insects to clothes.
(§2) A glass bottle having a volume of 500 ml was charged with 10 harmful insects and one square wool fabric piece having a side of 3 cm, and one pellet of the solid insect-proofing agent was placed apart from the wool fabric piece. The bottle was tightly plugged and was allowed to stand in the dark place at a temperature of 24° to 26° C.
(§3) For comparison, commercially available moth-proofing agents, p-dichlorobenzene and naphthalene (each was in the form of a flat disk-shaped pellet having a diameter of 21 mm), were similarly tested, and the test was carried out without using any moth-proofing agent.
(§4) The results of the tests conducted on larvae of case making clothes moths having a body length of about 6 mm as the harmful insects (Example 6 and Comparative Examples 1 to 3) are shown in Table 1, and the results of the test conducted on larvae of varied carpet beetles having a body length of about 4 mm as harmful insects (Example 7 and Comparative Examples 4 to 6) are shown in Table 2.

[4] = test system: larvae of varied carpet beetles; assay: test for controlling harmful insects to clothes, varied carpet beetle larvae (Table 2); format: in vivo; parameters: key to Eating damage degree after 24 hours: A: no eating damage; B: eating damage was only a trace; C: intermediate between ranks B and D; D: large eating damage (damage in absence of insect-proofing agent); details: for Number of dead insects after 6 hours / Number of dead insects after 24 hours: 10 varied carpet beetle larvae, 500 ml bottle, 24° to 26° C.; for Eating damage degree after 24 hours: wool fabric, varied carpet beetle larvae
Procedure: as §1, §2, §3, §4

[5] = it is said; cited from earlier work
[6] = test system: small fruit flies (drosophila); details: cited from earlier work
[7] = test system: rats; details: cited from earlier work
[8] = cited from earlier work; remark: listed apart in the source
[9] = test system: mice; details: cited from earlier work
[10] = test system: insects; assay: insecticidal force and repellency, general statement; format: in vivo
[11] = test system: rats; details: oral administration to rats; cited from earlier work
[12] = test system: salmonellae; details: cited from earlier work

CC1(C)[C@@H]2CC[C@@]1(C)C(=O)C2 (relative stereo) [dl-camphor]
Number of Killed Insects [1]: 0

CC12CCC(CC1=O)C2(C)C (stereo not drawn) [camphor]
solubility in water [2]: hardly soluble or is insoluble in water

c1ccc2ccccc2c1 [naphthalene]
solubility in water [2]: hardly soluble or is insoluble in water | Number of Killed Insects [1]: 0 | Number of dead insects after 6 hours [3]: 0 | Number of dead insects after 24 hours [3]: 2 | Eating damage degree after 24 hours [3]: B | Number of dead insects after 6 hours [4]: 0 | Number of dead insects after 24 hours [4]: 0 | Eating damage degree after 24 hours [4]: C

Clc1ccc(Cl)cc1 [p-dichlorobenzene]
solubility in water [2]: hardly soluble or is insoluble in water | Number of Killed Insects [1]: 2 | health effects [5]: causes liver troubles, lung granulomata, cataract and dermatitis | Number of dead insects after 6 hours [3]: 5 | Number of dead insects after 24 hours [3]: 10 | Eating damage degree after 24 hours [3]: A | Number of dead insects after 6 hours [4]: 3 | Number of dead insects after 24 hours [4]: 9 | Eating damage degree after 24 hours [4]: A

C1OCOCO1 [trioxane, 1,3,5-trioxane]
mutagenicity [6]: no mutagenicity | mutagenicity [7]: no mutagenicity | stability in highly acidic aqueous solution ([8]; highly acidic aqueous solution): hydrolyzed | stability in neutral or alkaline aqueous solution ([8]; neutral or alkaline aqueous solution): stable | hydrolyzability ([8]; normal state): very low | stability in air ([8]; normal temperature in air): very stable | mutagenicity [9]: no mutagenicity | insecticidal force ([10]; compared with p-dichlorobenzene): weaker than that of p-dichlorobenzene | repellency to insects ([10]; in vivo): sufficient repellency to insects | solubility in other various organic solvents ([2]; organic solvents other than saturated hydrocarbons): highly soluble | solubility in saturated hydrocarbons ([2]; saturated hydrocarbons): poor | solubility in water [2]: soluble in water | LD50 [11]: 8,500 mg/kg | mutagenicity [12]: no mutagenicity
